One compound from PMC2667786 (Structure (London, England : 1993), 2009) can be followed below.

The target in this assay is T1, AvPCP (Trichormus variabilis, UniProt Q3M7N3).
T1 sequence (Q3M7N3 1-234): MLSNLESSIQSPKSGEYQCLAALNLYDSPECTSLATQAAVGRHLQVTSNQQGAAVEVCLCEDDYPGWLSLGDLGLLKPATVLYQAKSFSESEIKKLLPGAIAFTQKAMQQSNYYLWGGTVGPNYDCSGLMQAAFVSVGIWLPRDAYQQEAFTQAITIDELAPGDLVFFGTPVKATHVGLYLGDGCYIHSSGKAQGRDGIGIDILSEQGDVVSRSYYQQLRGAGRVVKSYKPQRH
Nature of the assay: hydrolysis of murein tripeptide to Ala-γ-D-Glu and DAP. It counts as biochemical. As to conditions: assay details only in Supplemental Data.

Take `C[C@H](N)C(=O)N[C@H](CCC(=O)N[C@@H](CCC[C@@H](N)C(=O)O)C(=O)O)C(=O)O` [Ala-γ-D-Glu-DAP]: the “hydrolysis of murein tripeptide to Ala-γ-D-Glu and DAP” value is “AvPCP can, indeed, hydrolyze Ala-γ-D-Glu-DAP to Ala-γ-D-Glu and DAP”.
